Data on two molecules can be found in ChEMBL document CHEMBL1136541, “D-Phe-Pro-Arg type thrombin inhibitors: unexpected selectivity by modification of the P1 moiety” (Bioorg Med Chem Lett, 2003).

For this assay, the target named is T1, Serine protease 1 (Bos taurus, UniProt P00760).
T1 sequence (P00760 whole entry): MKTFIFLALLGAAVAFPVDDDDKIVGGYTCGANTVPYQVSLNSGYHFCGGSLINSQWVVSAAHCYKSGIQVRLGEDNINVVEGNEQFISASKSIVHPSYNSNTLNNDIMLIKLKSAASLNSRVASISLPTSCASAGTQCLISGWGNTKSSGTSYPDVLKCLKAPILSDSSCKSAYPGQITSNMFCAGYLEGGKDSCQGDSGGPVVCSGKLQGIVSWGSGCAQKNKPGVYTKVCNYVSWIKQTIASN
In words: In vitro inhibitory activity against trypsin.

In general, IC50 refers to the concentration that gives 50% inhibition. The low end stands for greater potency in that assay, the high end for weaker potency in that assay. `Cn1c(CNC(=O)[C@@H]2C=CCN2C(=O)[C@@H](CC2CCCCC2)NCC(=O)O)ccc1C(=N)N` returned an IC50 of 16 nM. This lies in the double-digit nanomolar range.
Next, `Cn1cc(CNC(=O)[C@@H]2C=CCN2C(=O)[C@@H](CC2CCCCC2)NCC(=O)O)cc1C(=N)N`: 306 nM.
